# Measured values reported in patent publication US11981669B2, “1,7-naphthyridine derivative and preparation method and use therefor” (CSPC ZHONGQI PHARMACEUTICAL TECHNOLOGY (SHIJIAZHUANG) CO., …, priority 2018, dated 2024).
# “And” between values parts separate entries of the source, which are not always exact repeats. Identical values can stand only once. Marks after values point to notes of the source that are not given here.
# Legend:
# erythropoietin = assay: Expression of erythropoietin in vivo (plasma EPO ELISA after single oral dose); conditions: once, plasma 6 hours after administration;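 further: male C57 mice given compound by mouth, five animals per treatment group, with EPO in plasma measured by ELISA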
# Procedure: (2) 30 c57 mice, male, were divided into 6 groups, 5 mice in each treatment group. […] 6 hours after the administration, blood was taken, and plasma was collected for EPO detection with an ELISA kit (R&D Co.).
# [1] = system: rats with residual kidney; assay: SD rat residual kidney experiment; type: in vivo, SD rats; parameters: Hematocrit / Alanine aminotransferase / Glutamic-oxalacetic transaminase: unit not given here
# Procedure: 79 SD rats were subjected to residual kidney surgery after anesthesia (left kidney was resected, one third of the right kidney was left, and the resected kidney part was weighed to confirm the surgical error). After 4 weeks, 45 surviving rats were subjected to blood cell dection and then assigned according to the HCT value 37 rats in good condition were selected and divided into the following groups: Link-118 (5, 10 mg/kg), Link-121 (5, 10 mg/kg), and FG-4592 (10 mg/kg), 6 rats in each treatment group, and 7 in the model group. 4 rats were assigned to the blank control group. The rats were administered three times each week (administered on Monday, Wednesday, and Friday), for 15 times, and blood was taken 24 hours after the last administration (tested by blood routine, blood biochemistry, hepcidin kit).
# HIF-2α = assay: Expression of HIF-2α protein in Hep3B cells (western blot, grayscale analysis); type: cell-based, Human; conditions: for fold induction at 30 µM: Homo sapiens, 2 h, compound at 30 μM, 10 μM and 3 μM, read-out: HIF-2α level of the compound of the present disclosure/HIF-2α level of blank control
# Procedure: (§1) A test compound was dissolved in dimethyl sulfoxide into a 100 mM stock solution, and then was diluted with 0.5% FBS-containing DMEM medium into 30 μM, 10 μM and 3 μM for later use. Human liver cancer cells Hep3B were seeded in a six-well plate at a density of 2.25*10^5 cells/well, 2 mL per well. After cultivation overnight, the cells were treated with compounds at different concentrations for 2 h. The proteins were extracted for western blot and further grayscale analysis.
# HIF-1α = assay: Expression of HIF-1α protein in Hep3B cells (western blot, grayscale analysis); type: cell-based, Human; conditions: for fold induction at 30 µM: Homo sapiens, 2 h, compound at 30 μM, 10 μM and 3 μM, read-out: HIF-1α level of the compound of the present disclosure/HIF-1α level of blank control
# Procedure: as §1
# reticulocytes = assay: Effect on reticulocytes of normal mice; type: in vivo, Balb/c mice; parameters: Reticulocytes (RETIC), average: unit not given here
# Procedure: 72 Balb/c mice, male, were divided into 12 groups, 6 mice in each treatment group. In the positive drug control groups: the mice in the FG-4592 treatment groups were orally administered once, at two doses of 10 mg/kg and 50 mg/kg, and the mice in the rhEPO treatment group was intraperitoneaily injected once, at a dose of 100 IU/kg. The compounds of the present disclosure were all orally administered once at a dose of 10 mg/kg. 72 h after the administration, blood was collected from the orbit of all animals, and subjected to EDTA-K2 anticoagulation. Then reticulocytes (RETIC) were counted with an automatic blood cell analyzer.
# CYP1A2 = CYP1A2 (Homo sapiens (Human), UniProt P05177); type: in vitro ADME
# From the text: (§2) The compounds of the present disclosure were subjected to the CYP450 enzyme inhibition assay.
# hERG channels = hERG channels (Homo sapiens (Human), UniProt Q12809); assay: cell-based; type: cell-based; conditions: for Inhibitory effect on hERG current at the highest test concentration: human, 30 μM
# Procedure: Whole-cell patch clamp technique was used to record hERG current. A cell suspension was added to a 35 mm Petri dish, and the dish was then placed on an inverted microscope stage. After the adherence of cells, they were perfused with extracellular fluid at a flow rate of 1-2 mL/min. A glass microelectrode was drawn by a microelectrode puller in two steps, and the pipette tip resistance was between 2-5 MΩ. After establishing the whole cell recording, the clamp potential was held at −80 mV, followed by depolarization to +60 mV when given voltage stimulation and then repolarization to −50 mV to elicit hERG tail current. All recordings were performed after the current was stable. Extracellular perfusion administration started from a low concentration, staying for 5-10 min at each concentration until the current was stable, and then cells were further perfused with the next concentration.
# CYP3A4-M = CYP3A4-M (Homo sapiens (Human), UniProt P08684); assay: CYP enzyme inhibition assay; type: in vitro ADME
# From the text: as §2
# CYP2C19 = CYP2C19 (Homo sapiens (Human), UniProt P33261); assay: CYP enzyme inhibition assay; type: in vitro ADME
# From the text: as §2
# CYP2D6 = CYP2D6 (Homo sapiens (Human), UniProt P10635); assay: CYP enzyme inhibition assay; type: in vitro ADME
# From the text: as §2
# CYP2C9 = CYP2C9 (Homo sapiens (Human), UniProt P11712); assay: CYP enzyme inhibition assay; type: in vitro ADME
# From the text: as §2
# [2] = 10 mg/kg, three times each week, 15 times, x ± sd
# [3] = compared with the blank control group
# [4] = 10 mg/kg p.o., once, 72 h after administration
# [5] = 100 IU/kg i.p., once, 72 h after administration
# CYP2D6, sequence (P10635 whole entry): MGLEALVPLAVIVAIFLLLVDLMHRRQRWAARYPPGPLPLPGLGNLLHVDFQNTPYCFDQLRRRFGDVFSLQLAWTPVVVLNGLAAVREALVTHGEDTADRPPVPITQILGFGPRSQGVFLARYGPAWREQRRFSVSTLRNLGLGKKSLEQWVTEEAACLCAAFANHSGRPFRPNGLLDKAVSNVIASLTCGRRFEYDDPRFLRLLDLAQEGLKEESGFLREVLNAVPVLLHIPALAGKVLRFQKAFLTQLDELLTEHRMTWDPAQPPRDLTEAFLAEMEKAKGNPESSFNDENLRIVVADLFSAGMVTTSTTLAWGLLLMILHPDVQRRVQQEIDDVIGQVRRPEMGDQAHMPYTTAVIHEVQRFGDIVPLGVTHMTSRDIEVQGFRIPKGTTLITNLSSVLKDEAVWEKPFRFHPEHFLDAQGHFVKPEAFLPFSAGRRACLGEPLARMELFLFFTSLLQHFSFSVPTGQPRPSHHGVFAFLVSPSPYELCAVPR
# CYP1A2, sequence (P05177 whole entry): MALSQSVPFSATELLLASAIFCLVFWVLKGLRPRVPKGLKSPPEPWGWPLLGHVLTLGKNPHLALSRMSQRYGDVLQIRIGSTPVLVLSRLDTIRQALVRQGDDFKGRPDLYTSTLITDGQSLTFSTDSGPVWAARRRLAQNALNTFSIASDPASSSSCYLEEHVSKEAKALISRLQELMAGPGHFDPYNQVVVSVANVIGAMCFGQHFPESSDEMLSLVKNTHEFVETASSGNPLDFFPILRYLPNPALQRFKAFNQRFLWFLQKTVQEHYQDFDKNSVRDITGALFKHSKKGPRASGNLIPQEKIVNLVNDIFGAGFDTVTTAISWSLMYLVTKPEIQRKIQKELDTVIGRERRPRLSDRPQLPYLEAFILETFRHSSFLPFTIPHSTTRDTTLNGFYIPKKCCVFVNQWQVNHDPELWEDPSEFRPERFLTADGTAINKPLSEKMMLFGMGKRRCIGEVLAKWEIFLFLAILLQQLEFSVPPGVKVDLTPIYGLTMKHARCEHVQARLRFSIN
# hERG channels, sequence (Q12809 whole entry, the tested form may be a part): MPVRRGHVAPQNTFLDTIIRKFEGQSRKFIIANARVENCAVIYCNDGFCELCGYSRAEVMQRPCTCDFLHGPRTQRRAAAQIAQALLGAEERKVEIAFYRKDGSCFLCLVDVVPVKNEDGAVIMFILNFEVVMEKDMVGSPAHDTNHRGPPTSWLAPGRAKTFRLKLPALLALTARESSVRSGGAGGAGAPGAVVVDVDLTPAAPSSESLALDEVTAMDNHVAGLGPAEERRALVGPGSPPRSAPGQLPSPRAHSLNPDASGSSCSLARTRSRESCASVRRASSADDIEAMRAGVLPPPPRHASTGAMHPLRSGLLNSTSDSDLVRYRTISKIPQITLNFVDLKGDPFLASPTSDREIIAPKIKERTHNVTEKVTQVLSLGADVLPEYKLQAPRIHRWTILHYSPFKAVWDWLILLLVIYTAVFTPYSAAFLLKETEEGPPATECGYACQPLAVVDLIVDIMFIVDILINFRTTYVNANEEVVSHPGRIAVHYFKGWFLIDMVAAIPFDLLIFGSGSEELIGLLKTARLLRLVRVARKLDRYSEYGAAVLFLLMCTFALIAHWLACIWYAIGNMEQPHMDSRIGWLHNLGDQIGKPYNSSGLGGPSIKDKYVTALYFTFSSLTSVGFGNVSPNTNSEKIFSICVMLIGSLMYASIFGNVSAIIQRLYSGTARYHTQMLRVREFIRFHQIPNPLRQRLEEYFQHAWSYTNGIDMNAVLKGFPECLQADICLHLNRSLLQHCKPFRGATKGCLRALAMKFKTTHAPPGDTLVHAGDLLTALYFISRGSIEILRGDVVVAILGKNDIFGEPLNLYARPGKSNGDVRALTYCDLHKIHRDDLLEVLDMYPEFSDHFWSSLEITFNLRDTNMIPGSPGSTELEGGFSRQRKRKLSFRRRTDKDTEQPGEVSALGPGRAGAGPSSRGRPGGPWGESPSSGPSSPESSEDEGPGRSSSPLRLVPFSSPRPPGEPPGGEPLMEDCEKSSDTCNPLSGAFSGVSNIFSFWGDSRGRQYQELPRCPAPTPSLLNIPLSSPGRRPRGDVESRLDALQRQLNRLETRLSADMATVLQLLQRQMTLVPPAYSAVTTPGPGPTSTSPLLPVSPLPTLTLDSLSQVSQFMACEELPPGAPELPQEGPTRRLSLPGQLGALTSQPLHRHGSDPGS
# CYP3A4-M, sequence (P08684 whole entry): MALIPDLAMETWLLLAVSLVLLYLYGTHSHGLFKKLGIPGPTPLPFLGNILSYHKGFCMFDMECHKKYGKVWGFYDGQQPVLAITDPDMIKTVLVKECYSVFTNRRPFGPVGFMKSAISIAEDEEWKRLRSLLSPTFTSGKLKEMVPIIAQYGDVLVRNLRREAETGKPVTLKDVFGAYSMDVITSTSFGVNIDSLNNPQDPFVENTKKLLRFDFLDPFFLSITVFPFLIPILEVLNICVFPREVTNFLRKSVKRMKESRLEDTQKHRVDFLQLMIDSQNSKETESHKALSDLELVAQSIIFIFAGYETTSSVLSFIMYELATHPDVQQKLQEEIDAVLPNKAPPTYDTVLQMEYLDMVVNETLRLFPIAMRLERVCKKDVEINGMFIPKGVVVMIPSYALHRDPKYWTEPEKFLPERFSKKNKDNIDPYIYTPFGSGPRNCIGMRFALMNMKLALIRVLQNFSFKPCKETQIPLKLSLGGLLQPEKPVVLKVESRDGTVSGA
# CYP2C19, sequence (P33261 whole entry): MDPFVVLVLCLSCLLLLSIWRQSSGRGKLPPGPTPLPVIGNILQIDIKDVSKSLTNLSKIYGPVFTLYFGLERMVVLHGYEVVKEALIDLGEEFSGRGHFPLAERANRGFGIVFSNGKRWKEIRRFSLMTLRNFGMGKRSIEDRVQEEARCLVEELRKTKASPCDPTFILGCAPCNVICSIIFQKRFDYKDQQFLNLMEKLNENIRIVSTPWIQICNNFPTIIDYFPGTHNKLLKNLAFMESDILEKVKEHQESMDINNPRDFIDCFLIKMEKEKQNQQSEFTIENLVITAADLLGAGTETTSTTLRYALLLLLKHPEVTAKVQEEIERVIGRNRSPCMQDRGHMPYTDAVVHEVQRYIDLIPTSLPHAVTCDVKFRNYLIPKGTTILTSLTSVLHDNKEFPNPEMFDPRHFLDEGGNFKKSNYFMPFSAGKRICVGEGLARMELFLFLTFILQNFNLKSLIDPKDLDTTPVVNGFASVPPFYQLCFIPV
# CYP2C9, sequence (P11712 whole entry): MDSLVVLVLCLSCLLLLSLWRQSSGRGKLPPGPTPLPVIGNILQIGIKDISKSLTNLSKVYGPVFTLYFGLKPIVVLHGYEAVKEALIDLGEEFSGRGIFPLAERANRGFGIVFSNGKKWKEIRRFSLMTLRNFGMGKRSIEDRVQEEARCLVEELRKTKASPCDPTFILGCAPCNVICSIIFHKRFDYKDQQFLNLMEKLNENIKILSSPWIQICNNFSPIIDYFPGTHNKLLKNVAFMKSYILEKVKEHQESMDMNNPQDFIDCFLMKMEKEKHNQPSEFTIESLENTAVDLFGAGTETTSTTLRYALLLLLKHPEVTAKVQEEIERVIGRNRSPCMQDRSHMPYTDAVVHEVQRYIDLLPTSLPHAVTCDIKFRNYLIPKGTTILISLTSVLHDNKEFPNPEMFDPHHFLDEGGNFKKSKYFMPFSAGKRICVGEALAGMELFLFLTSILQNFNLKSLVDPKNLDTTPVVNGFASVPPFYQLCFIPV
IC50 (CYP1A2) [µM],IC50 (CYP3A4-M) [µM],IC50 (CYP2C19) [µM],IC50 (CYP2D6) [µM],IC50 (CYP2C9) [µM],Compound,EPO OD value (erythropoietin; 10 mg/kg),EPO OD value (erythropoietin; 50 mg/kg),fold induction at 30 µM (HIF-2α),fold induction at 30 µM (HIF-1α),"Reticulocytes (RETIC), average (reticulocytes; [4])",IC50 (hERG channels) [µM],Inhibitory effect on hERG current at the highest test concentration (hERG channels),also measured
–,–,–,–,–,"O=c1c(-n2ccnn2)c[nH]n1-c1cc(N2CCOCC2)ncn1 [BAY85-3934, reference compound]",B (B represents 1.5<EPO OD value<2),D (D represents EPO OD value>3),–,–,–,–,–,–
–,–,–,–,–,"Cc1nc(C(=O)NCC(=O)O)c(O)c2ccc(Oc3ccccc3)cc12 [FG-4592, reference compound]",A (A represents 1.0<EPO OD value<1.5),A (A represents 1.0<EPO OD value<1.5),8.5 to 10,8.5 to 10,4.73,–,–,"Red blood cells ([1]; 10 mg/kg, three times each week, 15 times, blood 24 hours after last administration, x ± sd): 8.26 ± 0.41** 10^12/L; Alanine aminotransferase [1, 2]: 40.4 ± 3.58; Glutamic-oxalacetic transaminase [1, 2]: 11620 ± 10.96; Hematocrit [1, 2]: 47.7 ± 2.19; Hemoglobin [1, 2]: 16720 ± 8.47 g/L; Hepcidin [1, 2]: 2.59 ± 0.7015 ng/mL; Effect on glutamic-oxalacetic transaminase [1, 3]: no significant effect; Effect on liver glutamic-pyruvic aminotransferase [1, 3]: no significant effect; Effect on HCT in rats with residual kidney ([1]; compared with the model group): significantly increase; Effect on HGB in rats with residual kidney ([1]; compared with the model group): significantly increase; Effect on RBC in rats with residual kidney ([1]; compared with the model group): significantly increase; Effect on hepcidin in rats with residual kidney ([1]; compared with the model group): significantly inhibit; Reticulocytes (RETIC), average (reticulocytes; 50 mg/kg p.o., once, 72 h after administration): 7.42; Reticulocyte counts compared with normal animals (reticulocytes; 72 h after single administration, FG4592 statement at 10 mg/kg): no significant difference from normal animals"
–,–,–,–,–,"COc1ccc(Oc2ccc3c(O)c(C(=O)NCC(=O)O)nc(Cl)c3n2)cc1 [Link-119, 2-(2-(4-methoxyphenoxy)-5-hydroxy-8-chloro-1,7-naphthyridine-6-formamido) Acetic Acid]",A (A represents 1.0<EPO OD value<1.5),A (A represents 1.0<EPO OD value<1.5),–,–,–,–,–,–
–,–,–,–,–,"O=C(O)CNC(=O)c1nc(Cl)c2nc(Oc3cccnc3)ccc2c1O [Link-120, 2-(2-(pyrid-3-yloxy)-5-hydroxy-8-chloro-1,7-naphthyridine-6-formamido) Acetic Acid]",A (A represents 1.0<EPO OD value<1.5),A (A represents 1.0<EPO OD value<1.5),–,–,–,–,–,–
–,–,–,–,–,"O=C(O)CNC(=O)c1nc(Cl)c2nc(Cl)ccc2c1O [Link-122, 2-(2,8-dichloro-5-hydroxy-1,7-naphthyridine-6-formamido) acetic acid]",A (A represents 1.0<EPO OD value<1.5),B (B represents 1.5<EPO OD value<2),–,–,–,–,–,–
> 50,> 50,> 50,> 50,> 50,"O=C(O)CNC(=O)c1nc(Br)c2nc(Oc3ccccc3Cl)ccc2c1O [Link-125, 2-(2-(2-chlorophenoxy)-5-hydroxy-8-bromo-1,7-naphthyridine-6-formamido) Acetic Acid]",A (A represents 1.0<EPO OD value<1.5),D (D represents EPO OD value>3),1 to 4.5,4.5 to 8.5,5.62,> 30,far from the IC50 value,HIF-2α protein expression compared with blank control (HIF-2α): higher than that of the blank control; HIF-1α protein expression compared with blank control (HIF-1α): higher than that of the blank control
> 50,> 50,> 50,> 50,> 50,"O=C(O)CNC(=O)c1nc(Cl)c2nc(Oc3cccc(Cl)c3)ccc2c1O [Link-126, 2-(2-(3-chlorophenoxy)-5-hydroxy-8-chloro-1,7-naphthyridine-6-formamido) Acetic Acid]",A (A represents 1.0<EPO OD value<1.5),D (D represents EPO OD value>3),–,–,5.87,> 30,far from the IC50 value,–
37.9,> 50,> 50,> 50,> 50,"O=C(O)CNC(=O)c1nc(Br)c2nc(Oc3cccc(Cl)c3)ccc2c1O [Link-127, 2-(2-(3-chlorophenoxy)-5-hydroxy-8-bromo-1,7-naphthyridine-6-formamido) Acetic Acid]",A (A represents 1.0<EPO OD value<1.5),D (D represents EPO OD value>3),–,–,5.63,> 30,far from the IC50 value,–
> 50,> 50,> 50,> 50,> 50,"O=C(O)CNC(=O)c1nc(Cl)c2nc(Oc3ccc(Cl)cc3)ccc2c1O [Link-128, 2-(2-(4-chlorophenoxy)-5-hydroxy-8-chloro-1,7-naphthyridine-6-formamido) Acetic Acid]",A (A represents 1.0<EPO OD value<1.5),D (D represents EPO OD value>3),–,–,6.15,> 30,far from the IC50 value,–
–,–,–,–,–,"O=C(O)CNC(=O)c1nc(Br)c2nc(Oc3ccc(F)cc3)ccc2c1O [Link-131, 2-(2-(4-fluorophenoxy)-5-hydroxy-8-bromo-1,7-naphthyridine-6-formamido) Acetic Acid]",A (A represents 1.0<EPO OD value<1.5),A (A represents 1.0<EPO OD value<1.5),4.5 to 8.5,4.5 to 8.5,–,–,–,HIF-2α protein expression compared with blank control (HIF-2α): higher than that of the blank control; HIF-1α protein expression compared with blank control (HIF-1α): higher than that of the blank control
–,–,–,–,–,"CCOc1ccc2c(O)c(C(=O)NCC(=O)O)nc(Cl)c2n1 [Link-134, 2-(2-ethoxy-5-hydroxy-8-chloro-1,7-naphthyridine-6-formamido) Acetic Acid]",A (A represents 1.0<EPO OD value<1.5),A (A represents 1.0<EPO OD value<1.5),1 to 4.5,1 to 4.5,–,–,–,HIF-2α protein expression compared with blank control (HIF-2α): higher than that of the blank control; HIF-1α protein expression compared with blank control (HIF-1α): higher than that of the blank control
–,–,–,–,–,"CC(C)(C)C(=O)OCOC(=O)CNC(=O)c1nc(Cl)c2nc(Oc3ccccc3)ccc2c1O [Link-135, methyl (2-(2-phenoxy-5-hydroxy-8-chloro-1,7-naphthyridine-6-formamido)acetoxy) pivalate]",B (B represents 1.5<EPO OD value<2),B (B represents 1.5<EPO OD value<2),–,–,–,–,–,–
–,–,–,–,–,"rhEPO: positive drug control, intraperitoneally injected once at 100 IU/kg",–,–,–,–,–,–,–,"Reticulocytes (RETIC), average (reticulocytes; [5]): 6.58; Reticulocytes (RETIC), individual animals No. 1-6 (reticulocytes; [5]): 5.9 (2×) and 6.6 (2×) and 7.1 and 7.4"
